Values of other authors as cited in patent US20090233947A1, “2,3-Substituted fused bicyclic pyrimidin-4(3H)-ones which modulating the function of the vanilloid -1 receptor (VR1)” (priority 2005, published 2009).

Target: VR1 (Rattus norvegicus, UniProt O35433)
Details: Wahl et al., Mol. Pharmacol., 59:9, 2001

VR1, sequence (O35433 whole entry): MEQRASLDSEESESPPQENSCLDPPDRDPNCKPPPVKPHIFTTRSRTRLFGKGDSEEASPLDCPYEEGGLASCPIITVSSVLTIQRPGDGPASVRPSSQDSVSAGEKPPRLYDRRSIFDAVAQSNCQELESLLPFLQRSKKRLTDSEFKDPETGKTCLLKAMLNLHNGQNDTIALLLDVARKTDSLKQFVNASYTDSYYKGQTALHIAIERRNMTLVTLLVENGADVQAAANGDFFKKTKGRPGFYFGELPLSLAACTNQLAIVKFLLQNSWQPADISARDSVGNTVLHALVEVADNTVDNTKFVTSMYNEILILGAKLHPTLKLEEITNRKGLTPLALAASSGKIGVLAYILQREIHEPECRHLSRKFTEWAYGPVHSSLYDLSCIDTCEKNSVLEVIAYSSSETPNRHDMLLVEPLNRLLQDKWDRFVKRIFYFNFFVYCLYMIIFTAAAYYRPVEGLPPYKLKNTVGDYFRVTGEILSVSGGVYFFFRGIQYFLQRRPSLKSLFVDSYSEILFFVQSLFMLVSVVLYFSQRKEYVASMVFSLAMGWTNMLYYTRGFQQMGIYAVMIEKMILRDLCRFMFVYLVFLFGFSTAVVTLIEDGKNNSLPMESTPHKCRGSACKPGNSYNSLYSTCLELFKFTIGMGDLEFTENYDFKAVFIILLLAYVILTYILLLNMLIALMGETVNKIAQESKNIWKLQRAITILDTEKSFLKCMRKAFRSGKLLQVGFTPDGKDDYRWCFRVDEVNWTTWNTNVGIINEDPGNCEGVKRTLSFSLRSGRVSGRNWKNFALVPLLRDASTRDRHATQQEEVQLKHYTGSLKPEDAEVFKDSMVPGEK

## C=C(C)[C@]12C[C@@H](C)[C@@]34O[C@](Cc5ccccc5)(O[C@@H]1[C@@H]3C=C(COC(=O)Cc1cc(I)c(O)c(OC)c1)C[C@]1(O)C(=O)C(C)=C[C@@H]41)O2 [iodo-resiniferatoxin]
  antagonist of VR1: nanomolar antagonist
